Assay results from patent publication US20120058989A1, “ANTIBACTERIAL FLUOROQUINOLONE ANALOGS” (Achaogen, Inc., priority 2008, published 2012).

How the values were obtained:
Assay in all cases: MIC, CLSI broth microdilution
Format in all cases: cell-based
[1] = test system: A. baumannii AABA1009 (Fluoroquinolone-resistant); settings: Table 2
Description: (§1) Minimum inhibitory concentrations (MIC) were determined by reference Clinical and Laboratory Standards Institute (CLSI) broth microdilution methods per M7-A7 [2006]. Quality control ranges utilizing E. coli ATCC 25922, P. aeruginosa ATCC 27853 and S. aureus ATCC 29213, and interpretive criteria for comparator agents were as published in CLSI M100-S17 [2007]. Briefly, serial two-fold dilutions of the test compounds were prepared at 2× concentration in Mueller Hinton Broth. The compound dilutions were mixed in 96-well assay plates in a 1:1 ratio with bacterial inoculum. The inoculum was prepared by suspension of a colony from an agar plate that was prepared the previous day. Bacteria were suspended in sterile saline and added to each assay plate to obtain a final concentration of 5×10^5 CFU/mL. The plates were incubated at 35° C. for 20 hours in ambient air.

[2] = test system: P. aeruginosa APAE054 (Fluoroquinolone-resistant); settings: Table 2
Description: as §1

[3] = test system: P. aeruginosa APAE001 (Fluoroquinolone-susceptible, ATCC27853); settings: Table 2
Description: as §1

[4] = test system: S. aureus ASAU1031 (Fluoroquinolone-resistant); settings: Table 2
Description: as §1

[5] = test system: S. pneumoniae ASPN1027 (Fluoroquinolone-resistant); settings: Table 2
Description: as §1

[6] = test system: S. pneumoniae ASPN001 (Fluoroquinolone-susceptible, ATCC49619); settings: Table 2
Description: as §1

[7] = test system: A. baumannii AABA1065 (Fluoroquinolone-susceptible); settings: Table 2
Description: as §1

[8] = test system: E. coli AECO066 (Fluoroquinolone-resistant); settings: Table 2
Description: as §1

[9] = test system: E. coli AECO001 (Fluoroquinolone susceptible, ATCC25922); settings: Table 2, 35° C., 20 hours
Description: as §1

[10] = test system: S. aureus ASAU001 (Fluoroquinolone-susceptible, ATCC29213); settings: Table 2
Description: as §1

Row | Structure (SMILES) | MIC AABA 1009 [1] | MIC APAE 054 [2] | MIC APAE 001 [3] | MIC ASAU 1031 [4] | MIC ASPN 1027 [5] | MIC ASPN 001 [6] | MIC AABA 1065 [7] | MIC AECO 066 [8] | MIC AECO 001 [9] | MIC ASAU 001 [10]
1 | CON=C1Cc2c(c(F)cc3c(=O)c(C(=O)O)cn(C4CC4)c23)N2CCCC2C1 (centres unmarked) [27/11, 4-Cyclopropyl-12-fluoro-6-(methoxyimino)-1-oxo-4,5,6,7,7a,8,9,10-octahydro-1H-pyrrolo[1′,2′:1,7]azepino[2,3-h]quinoline-2-carboxylic acid] | C (MIC's of greater than 8.0 μg/mL = C) | C (MIC's of greater than 8.0 μg/mL = C) | C (MIC's of greater than 8.0 μg/mL = C) | C (MIC's of greater than 8.0 μg/mL = C) | C (MIC's of greater than 8.0 μg/mL = C) | B (MIC's of greater than 1.0 μg/mL to 8.0 μg/mL = B) | B (MIC's of greater than 1.0 μg/mL to 8.0 μg/mL = B) | C (MIC's of greater than 8.0 μg/mL = C) | B (MIC's of greater than 1.0 μg/mL to 8.0 μg/mL = B) | A (MIC's of 1.0 μg/mL or less = A)
2 | CN1Cc2c(c(F)cc3c(=O)c(C(=O)O)cn(C4CC4)c23)N2CCCC2C1.O=C(O)C(F)(F)F (centres unmarked) [15/3, 13-Cyclopropyl-8-fluoro-2-methyl-10-oxo-2,3,3a,4,5,6,10,13-octahydro-1H-pyrrolo[2′,1′:3,4][1,4]diazepino[5,6-h]quinoline-11-carboxylic acid trifluoroacetate] | C (MIC's of greater than 8.0 μg/mL = C) | C (MIC's of greater than 8.0 μg/mL = C) | C (MIC's of greater than 8.0 μg/mL = C) | C (MIC's of greater than 8.0 μg/mL = C) | C (MIC's of greater than 8.0 μg/mL = C) | B (MIC's of greater than 1.0 μg/mL to 8.0 μg/mL = B) | A (MIC's of 1.0 μg/mL or less = A) | C (MIC's of greater than 8.0 μg/mL = C) | A (MIC's of 1.0 μg/mL or less = A) | A (MIC's of 1.0 μg/mL or less = A)
3 | O=C(O)c1cn(C2CC2)c2c3c(c(F)cc2c1=O)N1CCCC1COC3 (centres unmarked) [11/8, 13-Cyclopropyl-8-fluoro-10-oxo-3a,4,5,6,10,13-hexahydro-1H,3H-pyrrolo[2′,1′:3,4][1,4]oxazepino[5,6-h]quinoline-11-carboxylic acid] | C (MIC's of greater than 8.0 μg/mL = C) | C (MIC's of greater than 8.0 μg/mL = C) | C (MIC's of greater than 8.0 μg/mL = C) | B (MIC's of greater than 1.0 μg/mL to 8.0 μg/mL = B) | C (MIC's of greater than 8.0 μg/mL = C) | A (MIC's of 1.0 μg/mL or less = A) | A (MIC's of 1.0 μg/mL or less = A) | C (MIC's of greater than 8.0 μg/mL = C) | A (MIC's of 1.0 μg/mL or less = A) | A (MIC's of 1.0 μg/mL or less = A)
4 | NC[C@H]1C[C@@H]2CC=Cc3c(c(F)cc4c(=O)c(C(=O)O)cn(C5CC5)c34)N2C1.O=C(O)C(F)(F)F [20/14, (7aS,9R)-9-(Aminomethyl)-4-cyclopropyl-12-fluoro-1-oxo-4,7,7a,8,9,10-hexahydro-1H-pyrrolo[1′,2′:1,7]azepino[2,3-h]quinoline-2-carboxylic acid trifluoroacetate] | C (MIC's of greater than 8.0 μg/mL = C) | C (MIC's of greater than 8.0 μg/mL = C) | B (MIC's of greater than 1.0 μg/mL to 8.0 μg/mL = B) | C (MIC's of greater than 8.0 μg/mL = C) | C (MIC's of greater than 8.0 μg/mL = C) | A (MIC's of 1.0 μg/mL or less = A) | A (MIC's of 1.0 μg/mL or less = A) | C (MIC's of greater than 8.0 μg/mL = C) | A (MIC's of 1.0 μg/mL or less = A) | A (MIC's of 1.0 μg/mL or less = A)
5 | N[C@@H]1CCN2c3c(F)cc4c(=O)c(C(=O)O)cn(C5CC5)c4c3CNC[C@H]12.O=C(O)C(F)(F)F.O=C(O)C(F)(F)F [26/17, (3aR,4R)-4-Amino-13-cyclopropyl-8-fluoro-10-oxo-2,3,3a,4,5,6,10,13-octahydro-1H-pyrrolo[2′,1′:3,4][1,4]diazepino[5,6-h]quinoline-11-carboxylic acid bis(trifluoroacetate)] | C (MIC's of greater than 8.0 μg/mL = C) | C (MIC's of greater than 8.0 μg/mL = C) | B (MIC's of greater than 1.0 μg/mL to 8.0 μg/mL = B) | C (MIC's of greater than 8.0 μg/mL = C) | C (MIC's of greater than 8.0 μg/mL = C) | B (MIC's of greater than 1.0 μg/mL to 8.0 μg/mL = B) | B (MIC's of greater than 1.0 μg/mL to 8.0 μg/mL = B) | C (MIC's of greater than 8.0 μg/mL = C) | A (MIC's of 1.0 μg/mL or less = A) | B (MIC's of greater than 1.0 μg/mL to 8.0 μg/mL = B)
6 | N[C@@H]1CCN2c3c(F)cc4c(=O)c(C(=O)O)cn(C5CC5)c4c3C=NC[C@H]12.O=C(O)C(F)(F)F [26/16, (3aR,4R)-4-Amino-13-cyclopropyl-8-fluoro-10-oxo-3a,4,5,6,10,13-hexahydro-3H-pyrrolo[2′,1′:3,4][1,4]diazepino[5,6-h]quinoline-11-carboxylic acid trifluoroacetate] | C (MIC's of greater than 8.0 μg/mL = C) | C (MIC's of greater than 8.0 μg/mL = C) | B (MIC's of greater than 1.0 μg/mL to 8.0 μg/mL = B) | C (MIC's of greater than 8.0 μg/mL = C) | C (MIC's of greater than 8.0 μg/mL = C) | B (MIC's of greater than 1.0 μg/mL to 8.0 μg/mL = B) | B (MIC's of greater than 1.0 μg/mL to 8.0 μg/mL = B) | C (MIC's of greater than 8.0 μg/mL = C) | A (MIC's of 1.0 μg/mL or less = A) | B (MIC's of greater than 1.0 μg/mL to 8.0 μg/mL = B)
7 | O=C(O)c1cn(C2CC2)c2c3c(c(F)cc2c1=O)N1CCCC1CS(=O)(=O)C3 (centres unmarked) [8/12, 13-Cyclopropyl-8-fluoro-10-oxo-3a,4,5,6,10,13-hexahydro-1H,3H-pyrrolo[2′,1′:3,4][1,4]thiazepino[5,6-h]quinoline-11-carboxylic acid 2,2-dioxide] | C (MIC's of greater than 8.0 μg/mL = C) | C (MIC's of greater than 8.0 μg/mL = C) | C (MIC's of greater than 8.0 μg/mL = C) | C (MIC's of greater than 8.0 μg/mL = C) | C (MIC's of greater than 8.0 μg/mL = C) | C (MIC's of greater than 8.0 μg/mL = C) | C (MIC's of greater than 8.0 μg/mL = C) | C (MIC's of greater than 8.0 μg/mL = C) | C (MIC's of greater than 8.0 μg/mL = C) | B (MIC's of greater than 1.0 μg/mL to 8.0 μg/mL = B)
8 | NCC1CCN2c3c(F)cc4c(=O)c(C(=O)O)cn(C5CC5)c4c3CCCC12.O=C(O)C(F)(F)F (racemic) [24/rac-17, (7aS*,8S*)-8-(Aminomethyl)-4-cyclopropyl-12-fluoro-1-oxo-4,5,6,7,7a,8,9,10-octahydro-1H-pyrrolo[1′,2′:1,7]-azepino[2,3-h]quinoline-2-carboxylic acid trifluoroacetate] | C (MIC's of greater than 8.0 μg/mL = C) | C (MIC's of greater than 8.0 μg/mL = C) | B (MIC's of greater than 1.0 μg/mL to 8.0 μg/mL = B) | B (MIC's of greater than 1.0 μg/mL to 8.0 μg/mL = B) | B (MIC's of greater than 1.0 μg/mL to 8.0 μg/mL = B) | A (MIC's of 1.0 μg/mL or less = A) | A (MIC's of 1.0 μg/mL or less = A) | C (MIC's of greater than 8.0 μg/mL = C) | A (MIC's of 1.0 μg/mL or less = A) | A (MIC's of 1.0 μg/mL or less = A)
